The text below walks through data of article PMC5628579, “Potent mechanism-based sirtuin-2-selective inhibition by an in situ-generated occupant of the substrate-binding site, “selectivity pocket” and NAD^+-binding site” (Chemical Science, 2017).

Assay [1] concerns the target T1, SIRT1 (Homo sapiens, UniProt Q96EB6).
T1 sequence (Q96EB6 1-747): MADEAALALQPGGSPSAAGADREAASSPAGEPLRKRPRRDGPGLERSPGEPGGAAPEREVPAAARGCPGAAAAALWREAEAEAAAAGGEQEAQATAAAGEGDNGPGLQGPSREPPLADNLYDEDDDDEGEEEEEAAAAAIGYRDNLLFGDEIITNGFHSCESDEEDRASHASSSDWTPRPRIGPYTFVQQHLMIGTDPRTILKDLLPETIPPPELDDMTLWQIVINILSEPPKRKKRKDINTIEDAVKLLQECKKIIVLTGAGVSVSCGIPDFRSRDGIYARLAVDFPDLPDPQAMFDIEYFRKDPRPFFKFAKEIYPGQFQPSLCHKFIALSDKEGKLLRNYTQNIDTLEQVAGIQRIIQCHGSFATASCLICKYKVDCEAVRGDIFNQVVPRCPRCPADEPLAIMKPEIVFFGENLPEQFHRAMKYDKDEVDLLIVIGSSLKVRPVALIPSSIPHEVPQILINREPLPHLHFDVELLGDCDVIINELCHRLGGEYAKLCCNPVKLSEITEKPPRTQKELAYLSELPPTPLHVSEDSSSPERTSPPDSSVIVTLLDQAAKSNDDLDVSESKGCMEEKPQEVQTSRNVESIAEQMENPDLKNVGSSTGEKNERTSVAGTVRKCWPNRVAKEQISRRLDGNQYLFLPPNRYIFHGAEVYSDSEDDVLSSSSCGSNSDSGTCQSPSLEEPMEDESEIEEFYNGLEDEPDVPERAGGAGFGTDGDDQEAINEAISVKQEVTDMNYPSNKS
In words: Fluor de Lys SIRT1 assay. The following applies: for inhibition at 10 µM: read-out: % inhibition at 10 μM SIRT1; for inhibition at 50 µM: read-out: % inhibition at 50 μM SIRT1.

Assay [2] concerns the target T2, SIRT2 (Homo sapiens, UniProt Q8IXJ6).
T2 sequence (Q8IXJ6 1-389): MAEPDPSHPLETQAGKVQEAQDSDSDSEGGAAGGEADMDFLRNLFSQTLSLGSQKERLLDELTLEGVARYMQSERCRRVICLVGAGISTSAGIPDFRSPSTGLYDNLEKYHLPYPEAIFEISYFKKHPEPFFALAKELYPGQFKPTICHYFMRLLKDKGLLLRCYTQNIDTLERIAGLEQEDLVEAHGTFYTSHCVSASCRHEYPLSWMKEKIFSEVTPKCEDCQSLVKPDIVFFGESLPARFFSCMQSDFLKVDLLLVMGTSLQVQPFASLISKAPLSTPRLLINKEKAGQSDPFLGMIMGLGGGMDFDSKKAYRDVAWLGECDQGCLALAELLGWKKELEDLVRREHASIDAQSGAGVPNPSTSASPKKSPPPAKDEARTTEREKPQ
In words: Fluor de Lys SIRT2 assay. The conditions noted are these: for inhibition at 10 µM: read-out: % inhibition at 10 μM SIRT2; for inhibition at 1 µM: read-out: % inhibition at 1 μM SIRT2.

Assay [3] deals with T3, SIRT3 (Homo sapiens, UniProt Q9NTG7).
T3 sequence (Q9NTG7 1-399): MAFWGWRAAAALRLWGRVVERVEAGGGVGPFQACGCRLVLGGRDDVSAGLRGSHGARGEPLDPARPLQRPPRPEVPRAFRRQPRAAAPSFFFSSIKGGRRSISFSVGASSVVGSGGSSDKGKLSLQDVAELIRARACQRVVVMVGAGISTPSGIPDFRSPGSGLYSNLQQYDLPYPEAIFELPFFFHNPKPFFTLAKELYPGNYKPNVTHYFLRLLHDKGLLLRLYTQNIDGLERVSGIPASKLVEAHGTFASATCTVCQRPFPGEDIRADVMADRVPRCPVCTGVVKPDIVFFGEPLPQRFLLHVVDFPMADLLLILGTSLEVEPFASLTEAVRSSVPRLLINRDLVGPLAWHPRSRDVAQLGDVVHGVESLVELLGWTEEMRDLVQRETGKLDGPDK
As to the kind of experiment: Fluor de Lys SIRT3 assay. The following applies: for inhibition at 10 µM: read-out: % inhibition at 10 μM SIRT3; for inhibition at 50 µM: read-out: % inhibition at 50 μM SIRT3.

Assay [4] deals with T4, SIRT5 (Homo sapiens, UniProt Q9NXA8).
T4 sequence (Q9NXA8 37-310): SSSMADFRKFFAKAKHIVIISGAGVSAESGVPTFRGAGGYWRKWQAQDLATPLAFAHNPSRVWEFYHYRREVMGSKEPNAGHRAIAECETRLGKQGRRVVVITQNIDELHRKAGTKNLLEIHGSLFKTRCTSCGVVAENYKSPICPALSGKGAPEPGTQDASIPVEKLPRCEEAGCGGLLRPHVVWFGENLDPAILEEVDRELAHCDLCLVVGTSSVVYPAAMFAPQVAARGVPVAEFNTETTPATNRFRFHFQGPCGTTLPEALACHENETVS
In words: Fluor de Lys SIRT5 assay. The following applies: for inhibition at 10 µM: read-out: % inhibition at 10 μM SIRT5; for inhibition at 50 µM: read-out: % inhibition at 50 μM SIRT5.

The subject of assay [5] is MDA-MB-231 cells. In words: Cell growth assay (AlamarBlue), MDA-MB-231. It is filed as cell-based, human. The conditions noted are these: Homo sapiens, MDA-MB-231, 72 h, 72 h of treatment. (The colour change of resazurin is a common sign of viable cells or microbes.)

Where a SMILES comes first, the peptide text is derived from it. Side-chain parts run from the residue outwards. The star is where a group is joined. Cbz = O=C(OCc1ccccc1)*; Bz = O=C(c1ccccc1)*

Regarding `CN(C)CCCCC(=O)Nc1ccc(NC(=S)NC(=O)c2ccc(C(C)(C)C)cc2)cc1` [Compound 3, tenovin-6, reference compound], the inhibition at 10 µM in assay [1] was 0.9 ± 0.17%; in assay [2], 45 ± 2.5%; in assay [3], 0%; in assay [4] it was 0%. Moreover, the inhibition at 50 µM in assay [1] is 64%; in assay [3], 9%; in assay [4] it was 2%.
For `N#C/C(=C\c1ccc(-c2cc(Cl)ccc2Cl)o1)C(=O)Nc1cccc2ncccc12` [Compound 7, AGK2, reference compound], the inhibition at 10 µM is 0.9 ± 0.62% in assay [1], 45 ± 2.9% in assay [2] and 0% in assay [4]. Further, the inhibition at 50 µM in assay [1] was 14%; in assay [4] it was 3%.
As to `O=C(Nc1cccc([N+](=O)[O-])c1)c1cccc(S(=O)(=O)N2CCCCCC2)c1` [Compound 8, AK-1, reference compound], the inhibition at 10 µM in assay [1] stood at 6.2 ± 0.85%; in assay [2], 31 ± 0.42%; in assay [3], 0%; in assay [4], 0%. The inhibition at 50 µM was found to be 25% in assay [1], 0% in assay [3] and 0% in assay [4].
As to `NC(=O)C1CCCc2c1[nH]c1ccc(Cl)cc21` (centres unmarked) [Compound 9, EX-527, reference compound], the GI50 in assay [5] is over 30 µM. Also, the inhibition at 10 µM in assay [1] was determined as 97 ± 0.13%; in assay [2], 79 ± 1.3%; in assay [4] it was 0%. Moreover, the inhibition at 50 µM in assay [4] was 0%.
In the case of `NC(=O)CNC(=O)c1ccccc1Nc1cccc(OCCc2ccccc2)c1` [Compound 17], the inhibition at 10 µM in assay [1] was 10 ± 1.9%; in assay [2], 85 ± 0.47%; in assay [3], 10 ± 0.95%; in assay [4], 0%. Further, the inhibition at 50 µM amounted to 18% in assay [1], 13% in assay [3] and 4% in assay [4]. Also, half-maximal inhibition in assay [2] (IC50) required 3.6 ± 0.03 µM. In addition, the inhibition at 1 µM in assay [2] stood at 19 ± 0.63%.
Consider `CCCNC(=O)CNC(=O)c1ccccc1Nc1cccc(OCCc2ccccc2)c1` [Compound 18], for which the inhibition at 10 µM was found to be 2 ± 1% in assay [1], 81 ± 0.43% in assay [2], 0% in assay [3] and 0% in assay [4]. For the same compound, the results for the inhibition at 50 µM in assay [1], in assay [3] and in assay [4] were 12%, 3% and 3%, respectively. This compound also had an IC50 in assay [2] of 4.04 ± 0.65 µM.
For the compound `CCCCCNC(=O)CNC(=O)c1ccccc1Nc1cccc(OCCc2ccccc2)c1` [Compound 19], the inhibition at 10 µM in assay [1] was found to be 4.5 ± 3.4%; in assay [2], 69 ± 2.2%; in assay [3], 3 ± 3.2%; in assay [4], 6 ± 3.2%. Moreover, the inhibition at 50 µM was determined as 4% in assay [1], 2% in assay [3] and 6% in assay [4]. In assay [2], the IC50 is 6.71 ± 0.42 µM.
The compound `C[C@H](NC(=O)[C@H](CCCCNC(=O)CNC(=O)c1ccccc1Nc1cccc(OCCc2ccccc2)c1)NC(=O)OCc1ccccc1)C(N)=O` [Compound 26] displayed a GI50 in assay [5] of 10.8 µM. Further, the inhibition at 10 µM in assay [1] turned out to be 16 ± 0.1%; in assay [2], 99 ± 0.15%; in assay [3], 14 ± 4.9%; in assay [4] it was 0%. Further, the inhibition at 50 µM in assay [1] was 25%; in assay [3], 56%; in assay [4] it was 6%. The compound further registered an IC50 in assay [2] of 0.37 ± 0.03 µM. For the same compound, in assay [2], the inhibition at 1 µM turned out to be 74 ± 2%.
Turning to `C[C@H](NC(=O)[C@H](CCCCNC(=O)CNC(=O)c1ccccc1Nc1ccccc1)NC(=O)OCc1ccccc1)C(N)=O` [Compound 27], the inhibition at 10 µM in assay [1] worked out at 24 ± 2.1%; in assay [2] it was 80 ± 0.12%; in assay [3], 9 ± 2.2%; in assay [4], 0%. The results for the inhibition at 50 µM in assay [1], in assay [3] and in assay [4] were 68%, 16% and 3%, respectively. In addition, half-maximal inhibition in assay [2] (IC50) was put at 1.84 ± 0.21 µM. Besides, the “reduction of the SIRT2 inhibitory activity” value in assay [2] (removal of the phenoxyethyl fragment, relative to 26) is reported as about 20%.
Take `C[C@H](NC(=O)[C@H](CCCCNC(=O)CNC(=O)c1ccccc1)NC(=O)OCc1ccccc1)C(N)=O` [Compound 28] (Cbz-Lys([Gly-Bz])-Ala-NH2): the inhibition at 10 µM was determined as 3.5 ± 1% in assay [1], 8 ± 3.3% in assay [2], 1 ± 1.8% in assay [3] and 0% in assay [4]. Moreover, the inhibition at 50 µM in assay [1] was found to be 1%; in assay [2] (read-out: % inhibition at 50 μM SIRT2), 18%; in assay [3], 0%; in assay [4], 0%. For the same compound, the “SIRT2 inhibition (in words)” value in assay [2] is “no SIRT2 inhibition”.
For the compound `CCCNC(=S)CNC(=O)c1ccccc1Nc1cccc(OCCc2ccccc2)c1` [Compound 41], the inhibition at 10 µM in assay [1] came out at 0%; in assay [2] it was 54 ± 1.5%; in assay [3] it was 0%; in assay [4], 1 ± 2.2%. The inhibition at 50 µM in assay [1] stood at 10%; in assay [3], 0%; in assay [4], 3%. This compound also yielded an IC50 in assay [2] of 8.47 ± 0.3 µM.
For `CCCCCNC(=S)CNC(=O)c1ccccc1Nc1cccc(OCCc2ccccc2)c1` [Compound 42], the inhibition at 10 µM in assay [1] is 0%; in assay [2], 40 ± 3.4%; in assay [3], 0%; in assay [4], 0%. Further, the inhibition at 50 µM in assay [1] turned out to be 11%; in assay [3] it was 2%; in assay [4] it was 3%. This compound also came in with an IC50 in assay [2] of 19.3 ± 3.1 µM.
With `CC(=S)NCCCC[C@H](NC(=O)OCc1ccccc1)C(=O)N[C@@H](C)C(N)=O` [UKU 10363, reference compound], the IC50 in assay [1] came out at 0.18 ± 0.013 µM; in assay [2], 0.59 ± 0.13 µM; in assay [3], 4.39 ± 0.28 µM. Also, the inhibition at 1 µM came to 83 ± 0.4% in assay [1] (read-out: % inhibition at 1 μM SIRT1), 56 ± 1.9% in assay [2] and 19 ± 0.78% in assay [3] (read-out: % inhibition at 1 μM SIRT3). Besides, the inhibition at 10 µM in assay [1] was found to be 97 ± 0.04%; in assay [2], 99 ± 3.2%; in assay [3], 65 ± 0.23%; in assay [4], 3 ± 3.9%. Also, the inhibition at 50 µM in assay [4] is 6%.

The term inhibition denotes the share of the control response that was lost under treatment. A word on the GI50: it is the concentration that inhibits growth by half. A higher GI50 goes with lower sensitivity of the cells. One may read the IC50 as the concentration that gives 50% inhibition. The low end stands for greater potency, the high end for weaker potency.
